Measured values taken from patent publication US20100298141A1, “SUBSTITUTED PYRIDINE N-OXIDE HERBICIDES” (E. I. DU PONT DE NEMOURS AND COMPANY, priority 2007, published 2010).

Legend:
[1] = system: corn (ZEAMD); assay: Test I preemergence mixtures of compound 2 with crop safeners; assay type: in vivo, Zea mays cv. ‘Pioneer 33G26’; conditions: alone
Source text: (§1) Seeds of test plants consisting of winter wheat (TRZAW, Triticum aestivum), corn (ZEAMD, Zea mays cv. ‘Pioneer 33G26’), wild oat (AVEFA, Avena fatua), and Italian ryegrass (LOLMU, Lolium multiflorum) were planted into a blend of loam soil and sand and treated preemergence with a directed soil spray using test chemicals formulated in a non-phytotoxic solvent mixture that included a surfactant. Seeds of small-seeded species were planted about 1 cm deep; larger seeds were planted about 2.5 cm deep. […] Balanced fertilizer was applied through the watering system. Treatments consisted of Compound 2 and the above mentioned safeners alone and in combination using a spray volume of 457 L/ha. Each treatment was replicated four times. Treated plants and controls were maintained in a greenhouse for 14 to 21 days, after which time all species were compared to controls and visually evaluated. […] A dash (-) response means no test result. Colby's Equation was used to determine the herbicidal effects expected from the mixtures. Colby's Equation (Colby, S. […] Pa+b=Pa+Pb−(PaPb/100) wherein • Pa+b is the percentage effect of the mixture expected from additive contribution of the individual components, • Pa is the observed percentage effect of the first active ingredient at the same use rate as in the mixture, and • Pb is the observed percentage effect of the second active ingredient at the same use rate as in the mixture.

[2] = system: Italian ryegrass (LOLMU); assay: as above; assay type: in vivo, Lolium multiflorum; conditions: alone
Source text: as §1

[3] = system: winter wheat (TRZAW); assay: as above; assay type: in vivo, Triticum aestivum; conditions: alone
Source text: as §1

[4] = system: winter wheat (TRZAW); assay: Test H preemergence mixtures of compound 2 with crop safeners; assay type: in vivo, Triticum aestivum; parameters: key to TRZAW Obsd. (observed effect): observed % effect, visually evaluated vs controls; conditions: for Plant response rating TRZAW Obsd.: scale 0 to 100; for TRZAW Obsd. (observed effect): Test H, alone
Source text: (§2) Seeds of test plants consisting of winter wheat (TRZAW, Triticum aestivum), corn (ZEAMD, Zea mays cv. ‘Pioneer 33G26’), giant foxtail (SETFA, Setaria faberi), and Italian ryegrass (LOLMU, Lolium multiflorum) were planted into a blend of loam soil and sand and treated preemergence with a directed soil spray using test chemicals formulated in a non-phytotoxic solvent mixture that included a surfactant. Seeds of small-seeded species were planted about 1 cm deep; larger seeds were planted about 2.5 cm deep. […] Balanced fertilizer was applied through the watering system. Treatments consisted of Compound 2 and the above mentioned safeners alone and in combination using a spray volume of 457 L/ha. Each treatment was replicated four times. Treated plants and controls were maintained in a greenhouse for 14 to 21 days, after which time all species were compared to controls and visually evaluated. […] A dash (-) response means no test result. Colby's Equation was used to determine the herbicidal effects expected from the mixtures. Colby's Equation (Colby, S. […] wherein • Pa+b is the percentage effect of the mixture expected from additive contribution of the individual components, • Pa is the observed percentage effect of the first active ingredient at the same use rate as in the mixture, and • Pb is the observed percentage effect of the second active ingredient at the same use rate as in the mixture.

[5] = system: Italian ryegrass (LOLMU); assay: as above; assay type: in vivo, Lolium multiflorum; parameters: key to LOLMU Obsd. (observed effect): observed % effect, visually evaluated vs controls; conditions: for Plant response rating LOLMU Obsd.: scale 0 to 100; for LOLMU Obsd. (observed effect): Test H, alone
Source text: as §2

[6] = system: giant foxtail (SETFA); assay: as above; assay type: in vivo, Setaria faberi; parameters: key to SETFA Obsd. (observed effect): observed % effect, visually evaluated vs controls; conditions: for Plant response rating SETFA Obsd.: scale 0 to 100; for SETFA Obsd. (observed effect): Test H, alone
Source text: as §2

[7] = system: corn (ZEAMD); assay: as above; assay type: in vivo, Zea mays cv. ‘Pioneer 33G26’; parameters: key to ZEAMD Obsd. (observed effect): observed % effect, visually evaluated vs controls; conditions: for Plant response rating ZEAMD Obsd.: scale 0 to 100; for ZEAMD Obsd. (observed effect): Test H, alone
Source text: as §2

[8] = system: wild oat (AVEFA); assay: Test I preemergence mixtures of compound 2 with crop safeners; assay type: in vivo, Avena fatua; conditions: alone
Source text: as §1

[9] = cloquintocet-mexyl alone 8 g a.i./ha
[10] = cloquintocet-mexyl alone 16 g a.i./ha
[11] = cloquintocet-mexyl alone 31 g a.i./ha

Structure (SMILES)	TRZAW Obsd. (observed effect) ([4]; 8 g a.i./ha)	TRZAW Obsd. (observed effect) ([4]; 16 g a.i./ha)	TRZAW Obsd. (observed effect) ([4]; 31 g a.i./ha)	LOLMU Obsd. (observed effect) ([5]; 8 g a.i./ha)	LOLMU Obsd. (observed effect) ([5]; 16 g a.i./ha)	LOLMU Obsd. (observed effect) ([5]; 31 g a.i./ha)	SETFA Obsd. (observed effect) ([6]; 8 g a.i./ha)	SETFA Obsd. (observed effect) ([6]; 16 g a.i./ha)	SETFA Obsd. (observed effect) ([6]; 31 g a.i./ha)	ZEAMD Obsd. (observed effect) ([7]; 8 g a.i./ha)	ZEAMD Obsd. (observed effect) ([7]; 16 g a.i./ha)	ZEAMD Obsd. (observed effect) ([7]; 31 g a.i./ha)	other results
CCCCCC(C)OC(=O)COc1ccc(Cl)c2cccnc12 (centres unmarked) [cloquintocet-mexyl]													ZEAMD Obsd. (observed effect) ([1]; 4 g a.i./ha): 0; ZEAMD Obsd. (observed effect) ([1]; 8 g a.i./ha): 0; LOLMU Obsd. (observed effect) ([2]; 4 g a.i./ha): 0; LOLMU Obsd. (observed effect) ([2]; 8 g a.i./ha): 0; TRZAW Obsd. (observed effect) ([3]; 4 g a.i./ha): 0; TRZAW Obsd. (observed effect) ([3]; 8 g a.i./ha): 0; Plant response rating TRZAW Obsd. [4, 9]: 0; Plant response rating TRZAW Obsd. [4, 10]: 0; Plant response rating TRZAW Obsd. [4, 11]: 0; Plant response rating LOLMU Obsd. [5, 9]: 0; Plant response rating LOLMU Obsd. [5, 10]: 8; Plant response rating LOLMU Obsd. [5, 11]: 0; Plant response rating SETFA Obsd. [6, 9]: 5; Plant response rating SETFA Obsd. [6, 10]: 3; Plant response rating SETFA Obsd. [6, 11]: 8; Plant response rating ZEAMD Obsd. [7, 9]: 0; Plant response rating ZEAMD Obsd. [7, 10]: 0; Plant response rating ZEAMD Obsd. [7, 11]: 0; AVEFA Obsd. (observed effect) ([8]; 4 g a.i./ha): 0; AVEFA Obsd. (observed effect) ([8]; 8 g a.i./ha): 0
O=C1OC(=O)c2cccc3cccc1c23 [naphthalic anhydride, 1,8-naphthalic anhydride]	3	0	0	13	0	0	0	0	0	0	0	0	
CCOC(=O)C1=NN(c2ccc(Cl)cc2Cl)C(C)(C(=O)OCC)C1 (centres unmarked) [mefenpyr-diethyl]	0	0	0	3	0	0	0	0	1	0	0	0	
